# Measured values reported in patent US9918939B2, “Formulation of Syk inhibitors” (Gilead Connecticut, Inc., priority 2013, dated 2018).
# Where a name gives a salt, the structure may show the parent alone.
# Assay: Stability studies of dry granulation tablet (HPLC, XRPD)
# Format: physicochemical
# Details: intragranular blend, milled granules, final blend of Formulation 1 (FIG. 4)
smiles,measurement,value
c1cn2cc(-c3ccc4cn[nH]c4c3)nc(Nc3ccc(N4CCOCC4)cc3)c2n1 [bis-mesylate salt of Formula IA],form change by XRPD during processing,no form change
